Data: patent EP0026746A1, “Combinatory compositions for use in a method for enhancing the activity of antibiotics, antibiotic preparations having enhanced activity and process for their production” (CIBA-GEIGY AG, priority 1979, dated 1981)

Tests used:
Assay in all cases: Mouse protection test, i.p. infection, survival ED50
Format in all cases: in vivo
[1] = system: Salmonella typhimurium 277; conditions: Salmonella enterica, sc, 240 h, mice, 40 x 10^4 cfu i.p., s.c. immediately and 3 h after infection, results after 10 days
Text: (§1) Die hohe antibiotische Wirkung des neuen Verfahrens und der neuen Präparate kann durch "in vivo"-Versuche nachgewiesen werden, die an verschiedenen Tierarten, insbesondere an Säugetieren, wie Mäusen, durchgeführt werden. Dazu infiziert man sie mit einer letalen oder sub-letalen Dosis eines pathogenen Microorganismus und gibt dann das genannte neue Präparat bzw. die einzelnen Dosen an Muramylpeptid und Antibiotikum. Die Wirkung wird als ED bestimmt, das ist diejenige Dosis bei denen […] der Tiere überleben.
(§2) Beispiel 4: Man infiziert weisse Laboratoriums-Mäuse auf i.p. Wege mit den in der nachfolgenden Tabelle angeführten pathogenen Mikroorganismen in Salzlösung, so dass 90-100% der nicht behandelten Kontrolltiere innerhalb von 48 Stunden getötet werden. Unmittelbar, sowie 3 Stunden nach der Infektion werden Gruppen zu je 10 Mäusen mit Cefroxadin, sowohl allein (ohne MDP oder nMDP) als auch in Kombination mit N-Acetyl-muramyl-L-alanyl-D-isoglutamin (MDP) bzw. mit N-Acetyldesmethylmuramyl-L-alanyl-D-isoglutamin (nMDP) behandelt, wobei dieselben zweimal in Form wässriger Lösungen oder Suspensionen auf subkutanem Weg verabreicht wurden. Nach 4 bzw. 10 Tagen nach erfolgter Infektion wurden die überlebenden Tiere gezählt. Die meisten dieser Versuche wurden zweifach ausgeführt und die Mittelwerte ermittelt.

[2] = system: Salmonella typhimurium 273; conditions: Salmonella enterica, sc, 240 h, mice, 400 x 10^4 cfu i.p., s.c. immediately and 3 h after infection, results after 10 days
Text: as §1, §2

[3] = system: Staphylococcus aureus 2999; conditions: Staphylococcus aureus, 2999, sc, 96 h, mice, 20 000 x 10^4 cfu i.p., s.c. immediately and 3 h after infection, survivors after 4 days
Text: as §1
as §2, with “10 Tagen nach erfolgter Infektion wurden die überlebenden Tiere gezählt.” left out

[4] = system: Klebsiella pneumoniae 329; conditions: Klebsiella pneumoniae, 329, sc, 96 h, mice, 2 x 10^4 cfu i.p., s.c. immediately and 3 h after infection, survivors after 4 days
Text: as §1
as §2, with “10 Tagen nach erfolgter Infektion wurden die überlebenden Tiere gezählt.” left out

[5] = system: Klebsiella pneumoniae 327; conditions: Klebsiella pneumoniae, 327, sc, mice, 60 x 10^4 cfu i.p., s.c. immediately and 3 h after infection, survivors
Text: as §1
as §2, with “10 Tagen nach erfolgter Infektion wurden die überlebenden Tiere gezählt.” left out

Pasteurella multocida = conditions: sc, mice, 0.1 x 10^4 cfu i.p., s.c. immediately and 3 h after infection, survivors
Text: as §1
as §2, with “10 Tagen nach erfolgter Infektion wurden die überlebenden Tiere gezählt.” left out

[6] = system: Streptococcus pyogenes 38; conditions: Streptococcus pyogenes, 38, sc, 96 h, mice, 0.6 x 10^4 cfu i.p., s.c. immediately and 3 h after infection, survivors after 4 days
Text: as §1
as §2, with “10 Tagen nach erfolgter Infektion wurden die überlebenden Tiere gezählt.” left out

Molecule `COC1=C(C(=O)O)N2C(=O)[C@@H](NC(=O)[C@H](N)C3=CCC=CC3)[C@H]2SC1` [Cefroxadin, 7ß-[D-2-amino-2-(1,4-cyclohexadienyl)-acetamido]-3-methoxy-3-cephem-4-carbonsäure] has an ED50 ([1]; mit 10 mg/kg MDP) of 7.6 mg/kg, an ED50 ([1]; mit 10 mg/kg nMDP) of 11 mg/kg and an ED50 ([1]; ohne MDP oder nMDP) of 22.5 mg/kg. The ED50 ([2]; mit 10 mg/kg MDP) was 22.5 mg/kg, the ED50 ([2]; mit 10 mg/kg nMDP) was 14 mg/kg and the ED50 ([2]; ohne MDP oder nMDP) was 39 mg/kg. It also gave an ED50 ([3]; mit 10 mg/kg MDP) of 45 mg/kg, an ED50 ([3]; mit 10 mg/kg nMDP) of 35 mg/kg and an ED50 ([3]; ohne MDP oder nMDP) of 58 mg/kg. It also gave an ED50 ([4]; mit 10 mg/kg MDP) of 4.5 mg/kg, an ED50 ([4]; mit 10 mg/kg nMDP) of under 2.5 mg/kg and an ED50 ([4]; ohne MDP oder nMDP) of 14.2 mg/kg. It also gave an ED50 ([5]; mit 10 mg/kg MDP) of under 50 mg/kg, an ED50 ([5]; mit 10 mg/kg nMDP) of under 50 mg/kg and an ED50 ([5]; ohne MDP oder nMDP) of 75 mg/kg. For the same molecule, the ED50 (Pasteurella multocida; mit 10 mg/kg MDP) was 37 mg/kg, the ED50 (Pasteurella multocida; mit 10 mg/kg nMDP) was 70 mg/kg and the ED50 (Pasteurella multocida; ohne MDP oder nMDP) was 109 mg/kg. It also gave an ED50 ([6]; mit 10 mg/kg MDP) of 0.18 mg/kg, an ED50 ([6]; mit 10 mg/kg nMDP) of 0.17 mg/kg and an ED50 ([6]; ohne MDP oder nMDP) of 0.21 mg/kg.
